Test results taken from the supplement of paper PMC11061612.

Legend:
Assay in all cases: combination Emax (second highest fraction inhibited in the dose matrix, 72 h); higher = more inhibition; extreme values may be limits of the assay
[1] = tested on: KYSE-70 (Esophageal Squamous Cell Carcinoma)
In short: (§1)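 Cell lines in DMEM/F12 or RPMI with 10% FBS were plated in 1536-well plates, held 24 hours at 37°C, 5% CO2, then given two-drug dose matrices for 72 hours (DMSO typically 0.2%). Viability was read by CellTiter-Glo 2.0 luminescence and scaled as inhibition from 0 (vehicle wells) to 1 (blank wells). Combination Emax is the second-highest inhibition in the matrix; Bliss excess is observed combination effect minus expected EA + EB − EA·EB, EA and EB being single-agent effects.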

[2] = tested on: Becker (Low Grade Glioma)
In short: as §1

[3] = tested on: OV-90 (Ovarian Carcinoma)
In short: as §1

ES-2 (Ovarian Carcinoma) = tested on: ES-2 (Ovarian Carcinoma)
In short: as §1

[4] = tested on: HCC-44 (Lung Adenocarcinoma)
In short: as §1

CHL-1 (Melanoma) = tested on: CHL-1 (Melanoma)
In short: as §1

HuO-3N1 (Osteosarcoma) = tested on: HuO-3N1 (Osteosarcoma)
In short: as §1

[5] = tested on: SW684 (Other Solid Carcinomas)
In short: as §1

[6] = tested on: PC-14 (Lung Adenocarcinoma)
In short: as §1

KYM-1 (Rhabdomyosarcoma) = tested on: KYM-1 (Rhabdomyosarcoma)
In short: as §1

[7] = tested on: SK-MM-2 (Plasma Cell Myeloma)
In short: as §1

[8] = tested on: SJRH30 (Rhabdomyosarcoma)
In short: as §1

[9] = tested on: LOUCY (T-Lymphoblastic Leukemia)
In short: as §1

[10] = tested on: NKM-1 (Acute Myeloid Leukemia)
In short: as §1

[11] = tested on: RMG-I (Ovarian Carcinoma)
In short: as §1

[12] = tested on: CML-T1 (Chronic Myelogenous Leukemia)
In short: as §1

[13] = tested on: EB-3 (Burkitt's Lymphoma)
In short: as §1

[14] = tested on: PANC-02-03 (Pancreatic Carcinoma)
In short: as §1

[15] = tested on: COLO-684 (Endometrial Carcinoma)
In short: as §1

[16] = tested on: LAMA-84 (Chronic Myelogenous Leukemia)
In short: as §1

## CS(=O)(=O)CCNCc1ccc(-c2ccc3ncnc(Nc4ccc(OCc5cccc(F)c5)c(Cl)c4)c3c2)o1 [Lapatinib] + NC1(c2ccc(-c3nc4ccn5c(=O)[nH]nc5c4cc3-c3ccccc3)cc2)CCC1 [MK-2206] (first compound max 10 µM, 7x7, partner max 10 µM)
[1]
  combination Emax: 0.613
[2]
  combination Emax: 0.808
[3]
  combination Emax: 0.623
ES-2 (Ovarian Carcinoma)
  combination Emax: 0.936
[4]
  combination Emax: 0.852
CHL-1 (Melanoma)
  combination Emax: 0.5
HuO-3N1 (Osteosarcoma)
  combination Emax: 0.869
[5]
  combination Emax: 0.686
[6]
  combination Emax: 0.993
KYM-1 (Rhabdomyosarcoma)
  combination Emax: 0.945
[7]
  combination Emax: 0.52
[8]
  combination Emax: 0.914
[9]
  combination Emax: 0.912
[10]
  combination Emax: 0.94
[11]
  combination Emax: 0.679
[12]
  combination Emax: 0.948
[13]
  combination Emax: 0.937
[14]
  combination Emax: 0.643
[15]
  combination Emax: 0.893
[16]
  combination Emax: 0.642
